Data from patent publication US10206399B2, “Herbicidal composition comprising uracil compound as active ingredient” (Dongbu Farm Hannong Co., Ltd., priority 2012, dated 2019).
Like-named read-outs stand apart in the source and are kept apart here.

Legend:
Echinochloa crus [1] = test: Dry field farming herbicidal composition test, plant mortality; format: in vivo
From the text: (§1) X is % damage by uracil compound (a) of formula 1 at the rate of application of p kg/ha; Y is % damage by conventional herbicidal compound (b) at the rate of application of q kg/ha; and E is the expected damage caused by compounds (a) and (b) at a rate of application of p and q kg/ha.
(§2) The expected activity for a given combination of two herbicides can be calculated using equation 1 above.

Digitaria sanguinalis [2] = test: as above; format: in vivo
From the text: as §1, §2

Abutilon theophrasti [3] = test: Dry field farming herbicidal composition test, plant mortality; format: in vivo
From the text: as §1, §2

Aeschynomene indica [4] = test: as above; format: in vivo
From the text: as §1, §2

Echinochloa crus [5] = test system: Echinochloa crus
From the text: as §1, §2

Xanthium spinosum = test: whole plant or invertebrate
From the text: as §1, §2

Abutilon theophrasti [6] = test: whole plant or invertebrate
From the text: as §1, §2

Digitaria sanguinalis [7] = test system: Digitaria sanguinalis
From the text: as §1, §2

Aeschynomene indica [8] = test: whole plant or invertebrate
From the text: as §1, §2

[9] = Echinochloa, read-out: Echinochloa crus mortality, measured value
[10] = Digitaria sanguinalis, read-out: Digitaria sanguinalis mortality, measured value
[11] = Abutilon theophrasti, read-out: Abutilon theophrasti mortality, measured value
[12] = Aeschynomene indica, read-out: Aeschynomene indica mortality, measured value

Q: For `COc1nc(C)nc(NC(=O)NS(=O)(=O)c2cc(I)ccc2C(=O)O)n1` [Iodosulfuron], which pest or weed control at 1.25 g/ha (Echinochloa crus [1]; [9]) is on record?
A: 7%

Q: What about the pest or weed control at 5 g/ha (Echinochloa crus [1]; [9]) of the same molecule?
A: 58%

Q: And the pest or weed control at 1.25 g/ha (Digitaria sanguinalis [2]; [10])?
A: 12%

Q: And the pest or weed control at 5 g/ha (Digitaria sanguinalis [2]; [10])?
A: 56%

Q: And the “Corn mortality, measured value” (corn; 1.25 g/ha)?
A: 0

Q: What about the “Corn mortality, measured value” (corn; 5 g/ha) of the same molecule?
A: 1

Q: And the pest or weed control at 1.25 g/ha (Abutilon theophrasti [3]; [11])?
A: 13%

Q: What about the pest or weed control at 5 g/ha (Abutilon theophrasti [3]; [11]) of the same molecule?
A: 61%

Q: What about the pest or weed control at 1.25 g/ha (Aeschynomene indica [4]; [12]) of the same molecule?
A: 12%

Q: And the pest or weed control at 5 g/ha (Aeschynomene indica [4]; [12])?
A: 47%

Q: With `CS(=O)(=O)c1cc(C(F)(F)F)ccc1C(=O)c1cnoc1C1CC1` [Isoxaflutole] as the molecule, how does the pest or weed control at 12.5 g/ha (Echinochloa crus [1]; [9]) read?
A: 14%

Q: And the pest or weed control at 25 g/ha (Echinochloa crus [1]; [9])?
A: 29%

Q: And the pest or weed control at 50 g/ha (Echinochloa crus [1]; [9])?
A: 61%

Q: What about the pest or weed control at 12.5 g/ha (Digitaria sanguinalis [2]; [10]) of the same molecule?
A: 10%

Q: And the pest or weed control at 25 g/ha (Digitaria sanguinalis [2]; [10])?
A: 24%

Q: And the pest or weed control at 50 g/ha (Digitaria sanguinalis [2]; [10])?
A: 53%

Q: What about the “Corn mortality, measured value” (corn; 12.5 g/ha) of the same molecule?
A: 0

Q: And the “Corn mortality, measured value” (corn; 25 g/ha)?
A: 0

Q: What about the “Corn mortality, measured value” (corn; 50 g/ha) of the same molecule?
A: 0

Q: What about the pest or weed control at 12.5 g/ha (Abutilon theophrasti [3]; [11]) of the same molecule?
A: 12%

Q: And the pest or weed control at 25 g/ha (Abutilon theophrasti [3]; [11])?
A: 31%

Q: And the pest or weed control at 50 g/ha (Abutilon theophrasti [3]; [11])?
A: 62%

Q: And the pest or weed control at 12.5 g/ha (Aeschynomene indica [4]; [12])?
A: 9%

Q: And the pest or weed control at 25 g/ha (Aeschynomene indica [4]; [12])?
A: 28%

Q: What about the pest or weed control at 50 g/ha (Aeschynomene indica [4]; [12]) of the same molecule?
A: 56%

Q: How did the “Echinochloa crus mortality, measured value” (from here on “Echinochloa crus mortality”) (Echinochloa crus [1]; 15 g/ha) turn out when `CS(=O)(=O)c1ccc(C(=O)C2C(=O)CCCC2=O)c([N+](=O)[O-])c1` [Mesotrione] was run?
A: 0

Q: What about the “Echinochloa crus mortality” value (Echinochloa crus [1]; 30 g/ha) of the same molecule?
A: 5

Q: And the “Echinochloa crus mortality” value (Echinochloa crus [1]; 60 g/ha)?
A: 15

Q: What about the pest or weed control at 15 g/ha (Echinochloa crus [1]; [9]) of the same molecule?
A: 0%

Q: And the pest or weed control at 30 g/ha (Echinochloa crus [1]; [9])?
A: 5%

Q: What about the pest or weed control at 60 g/ha (Echinochloa crus [1]; [9]) of the same molecule?
A: 15%

Q: What about the “Digitaria sanguinalis mortality, measured value” (shortened to “Digitaria sanguinalis mortality”) (Digitaria sanguinalis [2]; 15 g/ha) of the same molecule?
A: 0

Q: What about the “Digitaria sanguinalis mortality” value (Digitaria sanguinalis [2]; 30 g/ha) of the same molecule?
A: 5

Q: And the “Digitaria sanguinalis mortality” value (Digitaria sanguinalis [2]; 60 g/ha)?
A: 10

Q: And the pest or weed control at 15 g/ha (Digitaria sanguinalis [2]; [10])?
A: 0%

Q: What about the pest or weed control at 30 g/ha (Digitaria sanguinalis [2]; [10]) of the same molecule?
A: 5%

Q: What about the pest or weed control at 60 g/ha (Digitaria sanguinalis [2]; [10]) of the same molecule?
A: 10%

Q: What about the “Corn mortality (measured value)” value (corn; 15 g/ha) of the same molecule?
A: 0

Q: And the “Corn mortality, measured value” (corn; 15 g/ha)?
A: 0

Q: What about the “Corn mortality (measured value)” value (corn; 30 g/ha) of the same molecule?
A: 0

Q: And the “Corn mortality, measured value” (corn; 30 g/ha)?
A: 0

Q: And the “Corn mortality (measured value)” value (corn; 60 g/ha)?
A: 1

Q: And the “Corn mortality, measured value” (corn; 60 g/ha)?
A: 1

Q: What about the “Abutilon theophrasti mortality, measured value” (“Abutilon theophrasti mortality” for short) (Abutilon theophrasti [3]; 15 g/ha) of the same molecule?
A: 15

Q: What about the “Abutilon theophrasti mortality” value (Abutilon theophrasti [3]; 30 g/ha) of the same molecule?
A: 29

Q: And the “Abutilon theophrasti mortality” value (Abutilon theophrasti [3]; 60 g/ha)?
A: 58

Q: What about the pest or weed control at 15 g/ha (Abutilon theophrasti [3]; [11]) of the same molecule?
A: 15%

Q: What about the pest or weed control at 30 g/ha (Abutilon theophrasti [3]; [11]) of the same molecule?
A: 29%

Q: What about the pest or weed control at 60 g/ha (Abutilon theophrasti [3]; [11]) of the same molecule?
A: 58%

Q: What about the “Aeschynomene indica mortality, measured value” (shortened to “Aeschynomene indica mortality”) (Aeschynomene indica [4]; 15 g/ha) of the same molecule?
A: 11

Q: And the “Aeschynomene indica mortality” value (Aeschynomene indica [4]; 30 g/ha)?
A: 27

Q: And the “Aeschynomene indica mortality” value (Aeschynomene indica [4]; 60 g/ha)?
A: 54

Q: What about the pest or weed control at 15 g/ha (Aeschynomene indica [4]; [12]) of the same molecule?
A: 11%

Q: And the pest or weed control at 30 g/ha (Aeschynomene indica [4]; [12])?
A: 27%

Q: And the pest or weed control at 60 g/ha (Aeschynomene indica [4]; [12])?
A: 54%

Q: Which pest or weed control at 5 g/ha (Echinochloa crus [1]; [9]) does the source give for `COc1cc(OC)nc(NC(=O)NS(=O)(=O)c2ncccc2C(=O)N(C)C)n1` [Nicosulfuron] here?
A: 10%

Q: What about the pest or weed control at 10 g/ha (Echinochloa crus [1]; [9]) of the same molecule?
A: 24%

Q: What about the pest or weed control at 20 g/ha (Echinochloa crus [1]; [9]) of the same molecule?
A: 50%

Q: And the pest or weed control at 5 g/ha (Digitaria sanguinalis [2]; [10])?
A: 7%

Q: What about the pest or weed control at 10 g/ha (Digitaria sanguinalis [2]; [10]) of the same molecule?
A: 24%

Q: And the pest or weed control at 20 g/ha (Digitaria sanguinalis [2]; [10])?
A: 50%

Q: And the “Corn mortality, measured value” (corn; 5 g/ha)?
A: 0

Q: And the “Corn mortality, measured value” (corn; 10 g/ha)?
A: 0

Q: What about the “Corn mortality, measured value” (corn; 20 g/ha) of the same molecule?
A: 0

Q: And the pest or weed control at 5 g/ha (Abutilon theophrasti [3]; [11])?
A: 8%

Q: And the pest or weed control at 10 g/ha (Abutilon theophrasti [3]; [11])?
A: 26%

Q: And the pest or weed control at 20 g/ha (Abutilon theophrasti [3]; [11])?
A: 62%

Q: And the pest or weed control at 5 g/ha (Aeschynomene indica [4]; [12])?
A: 11%

Q: What about the pest or weed control at 10 g/ha (Aeschynomene indica [4]; [12]) of the same molecule?
A: 30%

Q: And the pest or weed control at 20 g/ha (Aeschynomene indica [4]; [12])?
A: 65%

Q: Which results are given for `Cc1nn(-c2cc(NS(C)(=O)=O)c(Cl)cc2Cl)c(=O)n1C(F)F` [Sulfentrazone]?
A: pest or weed control at 75 g/ha (Echinochloa crus [1]; [9]): 0%; pest or weed control at 150 g/ha (Echinochloa crus [1]; [9]): 5%; pest or weed control at 300 g/ha (Echinochloa crus [1]; [9]): 20%; pest or weed control at 75 g/ha (Digitaria sanguinalis [2]; [10]): 0%; pest or weed control at 150 g/ha (Digitaria sanguinalis [2]; [10]): 10%; pest or weed control at 300 g/ha (Digitaria sanguinalis [2]; [10]): 28%; Corn mortality, measured value (corn; 75 g/ha): 0; Corn mortality, measured value (corn; 150 g/ha): 0; Corn mortality, measured value (corn; 300 g/ha): 1; pest or weed control at 75 g/ha (Abutilon theophrasti [3]; [11]): 12%; pest or weed control at 150 g/ha (Abutilon theophrasti [3]; [11]): 25%; pest or weed control at 300 g/ha (Abutilon theophrasti [3]; [11]): 56%; pest or weed control at 75 g/ha (Aeschynomene indica [4]; [12]): 7%; pest or weed control at 150 g/ha (Aeschynomene indica [4]; [12]): 25%; pest or weed control at 300 g/ha (Aeschynomene indica [4]; [12]): 53%

Q: For `CCO/N=C(\CC)C1=C(O)CC(c2c(C)cc(C)cc2C)CC1=O` (stereo not shown) [Tralkoxydim], which “Data (measured value) Echinochloa crus” value (Echinochloa crus [5]; 25 g/ha) is on record?
A: 10

Q: And the “Data (measured value) Echinochloa crus” value (Echinochloa crus [5]; 50 g/ha)?
A: 24

Q: What about the “Data (measured value) Echinochloa crus” value (Echinochloa crus [5]; 100 g/ha) of the same molecule?
A: 56

Q: And the pest or weed control at 25 g/ha (Xanthium spinosum; read-out: Data (measured value) Xanthium spinosum, 25 g/ha)?
A: 0%

Q: What about the pest or weed control at 50 g/ha (Xanthium spinosum; read-out: Data (measured value) Xanthium spinosum, 50 g/ha) of the same molecule?
A: 0%

Q: And the pest or weed control at 100 g/ha (Xanthium spinosum; read-out: Data (measured value) Xanthium spinosum, 100 g/ha)?
A: 0%

Q: What about the pest or weed control at 25 g/ha (Abutilon theophrasti [6]; read-out: Data (measured value) Abutilon theophrasti, 25 g/ha) of the same molecule?
A: 0%

Q: What about the pest or weed control at 50 g/ha (Abutilon theophrasti [6]; read-out: Data (measured value) Abutilon theophrasti, 50 g/ha) of the same molecule?
A: 0%

Q: And the pest or weed control at 100 g/ha (Abutilon theophrasti [6]; read-out: Data (measured value) Abutilon theophrasti, 100 g/ha)?
A: 0%

Q: And the “Data (measured value) Digitaria sanguinalis” value (Digitaria sanguinalis [7]; 25 g/ha)?
A: 8

Q: What about the “Data (measured value) Digitaria sanguinalis” value (Digitaria sanguinalis [7]; 50 g/ha) of the same molecule?
A: 21

Q: What about the “Data (measured value) Digitaria sanguinalis” value (Digitaria sanguinalis [7]; 100 g/ha) of the same molecule?
A: 47

Q: What about the pest or weed control at 25 g/ha (Aeschynomene indica [8]; read-out: Data (measured value) Aeschynomene indica, 25 g/ha) of the same molecule?
A: 0%

Q: What about the pest or weed control at 50 g/ha (Aeschynomene indica [8]; read-out: Data (measured value) Aeschynomene indica, 50 g/ha) of the same molecule?
A: 0%

Q: What about the pest or weed control at 100 g/ha (Aeschynomene indica [8]; read-out: Data (measured value) Aeschynomene indica, 100 g/ha) of the same molecule?
A: 0%

Q: `O=C(O)COc1nc(Cl)c(Cl)cc1Cl` [Triclopyr] was tested. Which “Data (measured value) Echinochloa crus” value (Echinochloa crus [5]; 125 g/ha) did it give?
A: 0

Q: And the “Data (measured value) Echinochloa crus” value (Echinochloa crus [5]; 250 g/ha)?
A: 0

Q: What about the “Data (measured value) Echinochloa crus” value (Echinochloa crus [5]; 500 g/ha) of the same molecule?
A: 0

Q: And the pest or weed control at 125 g/ha (Xanthium spinosum; read-out: Data (measured value) Xanthium spinosum, 125 g/ha)?
A: 13%

Q: And the pest or weed control at 250 g/ha (Xanthium spinosum; read-out: Data (measured value) Xanthium spinosum, 250 g/ha)?
A: 30%

Q: What about the pest or weed control at 500 g/ha (Xanthium spinosum; read-out: Data (measured value) Xanthium spinosum, 500 g/ha) of the same molecule?
A: 59%

Q: And the pest or weed control at 125 g/ha (Abutilon theophrasti [6]; read-out: Data (measured value) Abutilon theophrasti, 125 g/ha)?
A: 11%

Q: What about the pest or weed control at 250 g/ha (Abutilon theophrasti [6]; read-out: Data (measured value) Abutilon theophrasti, 250 g/ha) of the same molecule?
A: 23%

Q: And the pest or weed control at 500 g/ha (Abutilon theophrasti [6]; read-out: Data (measured value) Abutilon theophrasti, 500 g/ha)?
A: 54%

Q: What about the “Data (measured value) Digitaria sanguinalis” value (Digitaria sanguinalis [7]; 125 g/ha) of the same molecule?
A: 0

Q: And the “Data (measured value) Digitaria sanguinalis” value (Digitaria sanguinalis [7]; 250 g/ha)?
A: 0

Q: What about the “Data (measured value) Digitaria sanguinalis” value (Digitaria sanguinalis [7]; 500 g/ha) of the same molecule?
A: 0

Q: And the pest or weed control at 125 g/ha (Aeschynomene indica [8]; read-out: Data (measured value) Aeschynomene indica, 125 g/ha)?
A: 9%

Q: What about the pest or weed control at 250 g/ha (Aeschynomene indica [8]; read-out: Data (measured value) Aeschynomene indica, 250 g/ha) of the same molecule?
A: 26%

Q: What about the pest or weed control at 500 g/ha (Aeschynomene indica [8]; read-out: Data (measured value) Aeschynomene indica, 500 g/ha) of the same molecule?
A: 58%
